# In ChEMBL document CHEMBL3232913, “Structural basis for the identification of the N-terminal domain of coronavirus nucleocapsid protein as an antiviral target” (2014):
# Active and inactive are the calls of the source. The calls are words filed in the database; no cut-off is given here.
# Columns and labels:
# [1] = test system: Human coronavirus OC43; assay: Inhibition of Human coronavirus OC43 replication infected in human 293T cells transfected with wild-type HCoV-OC43 N protein assessed as M mRNA level at 10 uM by RT-PCR analysis (reference value: 2.41 no unit); assay type: functional
# [2] = biological target: T1, Nucleoprotein (Human coronavirus OC43) (UniProt P33469); details: 10 uM
# T1 sequence (whole entry): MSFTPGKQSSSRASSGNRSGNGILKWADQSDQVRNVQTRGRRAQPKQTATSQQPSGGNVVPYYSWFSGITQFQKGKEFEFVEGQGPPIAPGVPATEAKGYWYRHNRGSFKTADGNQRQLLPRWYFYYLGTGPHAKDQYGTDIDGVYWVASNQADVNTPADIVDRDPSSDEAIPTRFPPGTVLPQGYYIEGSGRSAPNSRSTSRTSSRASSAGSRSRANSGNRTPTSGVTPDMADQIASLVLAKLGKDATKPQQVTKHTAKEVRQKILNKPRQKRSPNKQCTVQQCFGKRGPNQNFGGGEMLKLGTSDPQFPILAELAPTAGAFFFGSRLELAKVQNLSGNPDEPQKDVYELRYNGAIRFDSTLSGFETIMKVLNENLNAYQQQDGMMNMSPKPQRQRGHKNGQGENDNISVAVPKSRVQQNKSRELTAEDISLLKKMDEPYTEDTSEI
# Description: Inhibition of human coronavirus OC43 nucleocapsid protein expressed in Escherichia coli BL21(DE3) assessed as reduction of RNA-binding capacity by measuring resonance unit at 10 uM by surface plasmon resonance analysis relative to control
# [3] = biological target: T1, Nucleoprotein (Human coronavirus OC43); assay: Inhibition of human coronavirus OC43 nucleocapsid protein expressed in Escherichia coli BL21(DE3) assessed as reduction of RNA-binding capacity by surface plasmon resonance analysis relative to control; details: concentration not given here
# [4] = test system: Human coronavirus OC43; assay: Inhibition of Human coronavirus OC43 replication infected in human 293T cells assessed as M mRNA level at 10 uM by RT-PCR analysis (reference value: 0.32 no unit); assay type: functional
smiles,measurement,setting,value
CN(C)CC(=O)Nc1ccc2[nH]c(=O)c3ccccc3c2c1.Cl [PJ34],fold change (FC),[1],0.65
same,inhibition,[2],Active
same,inhibition,[3],> 10%
same,fold change (FC),[4],0.11
O=C1C(Cl)=C(NCCN2CCOCC2)C(=O)c2ncccc21,fold change (FC),[1],2.46
same,inhibition,[3],> 10%
same,fold change (FC),[4],0.22
